Experimental data taken from PMC9675574 (JCI Insight, 2022).

System: cerulein-induced pancreatitis in T7K24R mice
Assay: Cerulein-induced pancreatitis in T7K24R mice
Assay type: in vivo, mouse
Conditions: single oral gavage 200 mg/kg; 15 treated mice
Experimental: Pancreatitis was induced in T7K24R mice with 8 hourly intraperitoneal injections of the secretagogue peptide cerulein used in a dose of 50 μg/kg. Cerulein (catalog number C9026, MilliporeSigma) was dissolved in sterile normal saline at 10 μg/mL concentration. Mice were sacrificed 1, 24, 48, 72, or 96 hours from the first cerulein injection, as indicated, and the pancreas and blood were harvested. Details of histological analysis and measurement of plasma amylase (4 μL assayed) were reported previously ([29]–[31]).
Control mice were given gavage of the vehicle solution (Captisol; see below) or regular chow.
Captisol (β-cyclodextrin sulfobutyl ethers, sodium salts, lot number NC-04A-180185) was obtained from Cydex Pharmaceuticals (through Thermo Fisher Scientific) and was dissolved in sterile normal saline (3.5 g in 10 mL). […] The mixture was then compressed into pellets using the barrel of a 10 mL plastic syringe and a plunger. The prodrug-containing pellets were allowed to dry at 24°C for 2 days and stored at 4°C until use.

SMILES: [H]/N=C(/N)c1ccc(NCc2nc3cc(C(=O)N(CCC(=O)O)c4ccccn4)ccc3n2C)cc1 [dabigatran]
- share of mice with limited efficacy (less than 25% of normal acini preserved): 30%
